Assay results as given in publication PMC5903475, “Food-Derived Hemorphins Cross Intestinal and Blood–Brain Barriers In Vitro” (Frontiers in Endocrinology, 2018).
Where a SMILES comes first, the peptide text is derived from it. Where no end group is shown, it is not given here.

Legend:
[1] = background statement, no reference printed for it; cited from earlier work
[2] = system: Caco-2/TC7 cell barrier (human intestinal barrier model); details: for Passage of the intact peptide across the Caco-2 monolayer / Time of first appearance of the intact peptide in the basal compartment: 5 mM apical; for Passage of the intact peptide across the Caco-2 monolayer: basal samples 5-120 min, MRM; for Intact peptide or fragments present in the apical compartment, intestinal barrier / Intact peptide or fragments present in the basal compartment, intestinal barrier: peptide applied apically at 5 mM, end of the 120 min passage test, LC-MS/MS
Procedure: For the experiment, they were seeded at the density of 60 × 10^3 cells cm^−2 into cell culture inserts in 6-well culture plates and grown for 21 days.
The day of the trans-intestinal transport test, growth media were removed, and cells were first rinsed with the transport medium, HBSS-Hepes buffer supplemented with CaCl2 (2.5 mM final) and MgCl2 (0.5 mM final) in the apical (1 mL) and basolateral chambers (2.5 mL), then pre-incubated for 30 min with the transport medium. All incubations were performed at 37°C, 10% CO2 atmosphere. To control the integrity of the Caco-2/TC7 cell barrier, the paracellular transport marker lucifer yellow (LY, 100 µM final) was applied apically into each well and its transport into the basolateral chamber was monitored by spectrofluorescence. Each hemorphin was diluted for a final concentration of 5 mM in transport medium-LY and applied to the apical chamber at t0. In parallel, control wells were incubated with transport medium-LY only and all conditions were tested in triplicate. At t5, 15, 30, and 60 min, 100 µL samples were collected in the basal chamber and replaced by the same volume of transport medium. At t120 min, all remaining media in basal and apical chambers were collected and all samples were stored at −80°C. The rate of LY transport was determined by fluorescence readings (ex 485/em 530 nm) at each time point on the spectrofluorometer Safas Xenius XC (Safas Monaco, Monaco, France) and calculating the apparent permeability coefficient (Papp) as follows: (ΔQ/Δt) × (Vb/(A × C0)), where ΔQ is the change in LY concentration in the basal chamber (μM); Δt is the transport duration (s); Vb is the volume in the basal chamber (mL); A is the surface area of the insert/transwell membrane (cm^2); and C0 is the initial concentration of LY applied to the apical chamber (μM).
LC-MS/MS analysis was performed on a UFLC-XR device (Shimadzu, Kyoto, Japan) coupled to a QTRAP® 5500 MS/MS hybrid system triple quadrupole/linear ion trap mass spectrometer (AB Sciex, Foster City, CA, USA) equipped with a Turbo VTM ion source. Instrument control, data acquisition, and processing were performed using Analyst 1.5.2 software. The reverse phase liquid chromatography separation was carried out on a Kromasil C18 column (100 × 2.1 mm, 3.5 µm) with guard cartridge from AIT-France (Houilles, France). The injection volume was 2 µL. Elution was performed at a flow rate of 200 µL min^−1 with water-formic acid 0.1% as eluent A and acetonitrile-formic acid 0.1% as eluent B. The injection duty cycle was 10 min, starting with a 1 min plateau with 25% B, followed by a linear gradient from 25 B to 60% B in 4 min, a 1 min plateau with 60% B, 1 min linear gradient from 60 to 25% B, and 3 min at 25% B to recondition the column. MS analysis was carried out in positive ionization mode. The ion source parameters were optimized and set as follows: ion spray voltage, 5,500 V; nebulizer gas (air) and curtain gas (nitrogen) flows, 50 and 25 psi, respectively; source temperature, 550°C with the auxiliary gas flow (air) set at 50 psi; declustering potential (DP), 100 V; and collision cell exit potential, 25 V. The mass spectrometer was operated at a unit resolution for both Q1 and Q3 with a dwell time of 90 ms in each transition.
The presence of each intact hemorphin and potential fragments were tracked by a combination of multiple reaction monitoring (MRM) and pseudo-MRM transitions.

[3] = system: mu- and kappa-transfected CHO-cells; set-up: method as in Fukuda et al. 45; details: ref Fukuda et al. 45; cited from earlier work
[4] = system: FK-induced intracellular cAMP in Caco-2 cells; assay: cAMP determination assay in forskolin-stimulated Caco-2 cells; assay type: cell-based, human; details: 1 µM alone, 15 min
Procedure: For the cAMP determination assay and the gene expression study, the cell line used was the Caco-2 cell line purchased from Sigma-Aldrich (Steinheim, Germany). Cells were grown at 37°C, 5% CO2 atmosphere in Dulbecco’s modified Eagle’s Medium (DMEM, 4.5 g L^−1 glucose) supplemented with 10% FBS, 2 mM L-glutamine, 100 U mL^−1 penicillin, and 100 µg mL^−1 streptomycin (complete DMEM) until use. Caco-2 from passages 34–37 were used. For the transport studies, the cell lines used and the culture protocols conditions are described in detail in dedicated subsections below.
The effect of the five opioid peptides/hemorphins on the cAMP production was assessed in vitro in Caco-2 cells. Each hemorphin was applied on Caco-2 cells stimulated or not by FK, an activator of the cAMP pathway, in order to evaluate the ability of the peptides to decrease intracellular cAMP elevation induced by FK. […] At the end of the 15 min incubation, cells were immediately rinsed three times with PBS and plates were stored at −80°C until intracellular cAMP levels determination with the Mouse/Rat cAMP Parameter Assay Kit according to the manufacturer’s guidelines. cAMP levels were normalized by the total protein concentration determined by the Pierce BCA Protein Assay Kit for each sample and expressed as a percentage of the reference condition FK only.

Caco-2/TC7 cell barrier = details: LY 100 µM with hemorphin 5 mM apical
Procedure: The day of the trans-intestinal transport test, growth media were removed, and cells were first rinsed with the transport medium, HBSS-Hepes buffer supplemented with CaCl2 (2.5 mM final) and MgCl2 (0.5 mM final) in the apical (1 mL) and basolateral chambers (2.5 mL), then pre-incubated for 30 min with the transport medium. All incubations were performed at 37°C, 10% CO2 atmosphere. To control the integrity of the Caco-2/TC7 cell barrier, the paracellular transport marker lucifer yellow (LY, 100 µM final) was applied apically into each well and its transport into the basolateral chamber was monitored by spectrofluorescence. Each hemorphin was diluted for a final concentration of 5 mM in transport medium-LY and applied to the apical chamber at t0. […] The rate of LY transport was determined by fluorescence readings (ex 485/em 530 nm) at each time point on the spectrofluorometer Safas Xenius XC (Safas Monaco, Monaco, France) and calculating the apparent permeability coefficient (Papp) as follows: (ΔQ/Δt) × (Vb/(A × C0)), where ΔQ is the change in LY concentration in the basal chamber (μM); Δt is the transport duration (s); Vb is the volume in the basal chamber (mL); A is the surface area of the insert/transwell membrane (cm^2); and C0 is the initial concentration of LY applied to the apical chamber (μM).

[5] = system: BLEC blood-brain barrier model; details: hemorphin 100 µM apical; Dunnett's post hoc
Procedure: (§1) The day of the transport test, the same procedure as for the intestinal passage assay was applied except that the transwell inserts were transferred to a new 12-well culture plate at each time point, 30, 60, 90, and 120 min. All incubations were performed at 37°C, 5% CO2 atmosphere with slight agitations. The transport medium consisted in Ringer-Hepes solution (150 mM NaCl, 5.2 mM KCl, 2.2 mM CaCl2, 0.2 mM MgCl2⋅6H2O, 6 mM NaHCO3, 5 mM HEPES, pH 7.4). […] A test was performed without cells to insure that the filter membrane was not preventing the passage of the peptides.

physchem = details: pH 7.4
[6] = system: brain-like endothelial cells (BLEC) co-cultured with bovine brain pericytes (human BBB model); details: peptide applied apically at 100 µM; table footnote says end of 120 min test, Figure 4 says 30 min
Procedure: The brain-like endothelial cell model has previously been described in detail ([28]). All the sample donors had given their written informed consent, in compliance with French legislation and the 2013 version of the Declaration of Helsinki. The sample collection was approved by the local investigational review board (Bethune Maternity Hospital Béthune, France). Briefly, this human model consists in isolating CD34+ cells from umbilical cord blood. These cells are then cultured in endothelial cell medium supplemented with 20% FCS for 15–20 days. After this period, cells are differentiated into endothelial cells. After a trypsinization step, they are seeded on matrigel coated-transwell inserts in 12-well culture plates, and subsequently cultured with brain pericytes, isolated from bovine brain capillaries. After 6 days of co-culture, human endothelial cells acquire the BBB phenotype, and are then named BLECs.
as §1
The injection volume was 2 µL.

blood-brain barrier = details: 125I-H7; rats; cited from earlier work
caco-2 cell monolayer = system: caco-2 cell monolayer; set-up: method as in PMID 18468445; details: cited from earlier work

Compound	Passage of the intact peptide across the Caco-2 monolayer [2]	Intact peptide or fragments present in the basal compartment, BBB [6]	Time of first appearance of the intact peptide in the basal compartment ([2]; Caco-2 model) [min]	Intact peptide or fragments present in the apical compartment, intestinal barrier [2]	Intact peptide or fragments present in the basal compartment, intestinal barrier [2]	other results
C[C@@H](O)[C@H](NC(=O)[C@H](Cc1c[nH]c2ccccc12)NC(=O)[C@@H]1CCCN1C(=O)[C@@H](N)Cc1ccc(O)cc1)C(=O)O [H4, YPWT] (H-YPWT-OH)	–	–	–	–	–	Stability in plasma [1]: very stable in plasma; Time of first identification of the fragment in basal samples ([2]; fragment released from hemorphins applied at 5 mM, Caco-2 model): 5 min
C=CCN1CC[C@]23c4c5ccc(O)c4O[C@H]2C(=O)CC[C@@]3(O)[C@H]1C5 [naloxone]	–	–	–	–	–	Activity at opioid receptors in transfected CHO-cells [3]: partial agonist activity; Intracellular cAMP, % of FK levels [4]: 68.42 ± 6.87%
LLVVYPWT [LLVV-H4, LLVV-YPWT]	not detected	H4, VV-H4, LVV-H4, LLVV-H4	–	–	–	Papp(LY) compared to control, intestinal barrier model (Caco-2/TC7 cell barrier): decreased compared to control (non-significant); Papp(LY) compared to control, BBB model [5]: 133.2 ± 16.44%; solubility (physchem): > 50 µM
LVVYPWT [LVV-H4, LVV-YPWT]	clearly able to cross intact the cell monolayer	H4, VV-H4, LVV-H4	60	LVV-H4, VV-H4, H4	H4, VV-H4, LVV-H4	–
VVYPWT [VV-H4, VV-YPWT]	clearly able to cross intact the cell monolayer	H4, VV-H4	60	VV-H4, H4	H4, VV-H4	Papp(LY) compared to control, BBB model [5]: 142.2 ± 26.71%
VVYPWTQRF [VV-H7, VV-YPWTQRF]	found in traces	H4, VV-H7, VV-H4, H7, H3, H5	–	VV-H7, VV-H4, H7, H6	H4, VV-H7, H7, H3	Papp(LY) compared to control, intestinal barrier model (Caco-2/TC7 cell barrier): decreased compared to control (non-significant)
YPWTQRF [H7, YPWTQRF]	clearly able to cross intact the cell monolayer	–	5	–	–	Time to BBB passage after intra-femoral artery injection (blood-brain barrier): ≤ 15 min
endomorphine-1	–	–	–	–	–	Permeability through a caco-2 cell monolayer (caco-2 cell monolayer): low permeability
